# Measurements taken from ChEMBL document CHEMBL1201862, “PubChem BioAssay data set” (2004).
#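 Method: 48-hour compound exposure of cells in 96-well plates, five concentrations, linear interpolation of endpoints. GI50 = concentration required for 50% inhibition of growth.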 Active and inactive are the calls of the source. Rule as the data show it: active = GI50 up to about 1.1 µM and inactive = higher.
# Tests used:
# Experiment in all cases: NCI-60 cell line screen, 48 h
# 786-0 = test system: 786-0
# A498 = test system: A498
# A549 = test system: A549
# ACHN = test system: ACHN
# CAKI-1 = test system: CAKI-1
# CCRF-CEM = test system: CCRF-CEM
# COLO 205 = test system: COLO 205
# DLD-1 = test system: DLD-1
# DMS-273 = test system: DMS-273
# EKVX = test system: EKVX
# HCC 2998 = test system: HCC 2998
# HCT-116 = test system: HCT-116
# HCT-15 = test system: HCT-15
# HOP-18 = test system: HOP-18
# HOP-62 = test system: HOP-62
# HOP-92 = test system: HOP-92
# HT-29 = test system: HT-29
# IGROV-1 = test system: IGROV-1
# K562 = test system: K562
# KM-20L2 = test system: KM-20L2
# KM12 = test system: KM12
# LOX IMVI = test system: LOX IMVI
# M14 = test system: M14
# M19-MEL = test system: M19-MEL
# Malme-3M = test system: Malme-3M
# NCI-H226 = test system: NCI-H226
# NCI-H23 = test system: NCI-H23
# NCI-H460 = test system: NCI-H460
# OVCAR-3 = test system: OVCAR-3
# OVCAR-4 = test system: OVCAR-4
# OVCAR-5 = test system: OVCAR-5
# OVCAR-8 = test system: OVCAR-8
# RPMI-8226 = test system: RPMI-8226
# RXF 631 = test system: RXF 631
# SF-268 = test system: SF-268
# SF-295 = test system: SF-295
# SF-539 = test system: SF-539
# SK-MEL-28 = test system: SK-MEL-28
# SK-MEL-2 = test system: SK-MEL-2
# SK-MEL-5 = test system: SK-MEL-5
# SK-OV-3 = test system: SK-OV-3
# SN12C = test system: SN12C
# SNB-19 = test system: SNB-19
# SNB-75 = test system: SNB-75
# SNB-78 = test system: SNB-78
# SW-620 = test system: SW-620
# TK-10 = test system: TK-10
# U-251 = test system: U-251
# UACC-257 = test system: UACC-257
# UACC-62 = test system: UACC-62
# UO-31 = test system: UO-31
# LXFL 529 = test system: LXFL 529
# MOLT-4 = test system: MOLT-4
# NCI-H522 = test system: NCI-H522
# RXF 393 = test system: RXF 393
# XF498 = test system: XF498
# DMS-114 = test system: DMS-114
# HL-60 = test system: HL-60
compound,measurement,setting,value
O=c1c2cc(Br)ccc2[nH]c(=S)n1-c1ccccc1,GI50,786-0,> 100 µM (inactive)
same,GI50,A498,> 100 µM (inactive)
same,GI50,A549,> 100 µM (inactive)
same,GI50,ACHN,> 100 µM (inactive)
same,GI50,CAKI-1,> 100 µM (inactive)
same,GI50,CCRF-CEM,> 100 µM (inactive)
same,GI50,COLO 205,> 100 µM (inactive)
same,GI50,DLD-1,> 100 µM (inactive)
same,GI50,DMS-273,> 100 µM (inactive)
same,GI50,EKVX,> 100 µM (inactive)
same,GI50,HCC 2998,> 100 µM (inactive)
same,GI50,HCT-116,> 100 µM (inactive)
same,GI50,HCT-15,> 100 µM
same,GI50,HOP-18,> 100 µM (inactive)
same,GI50,HOP-62,> 100 µM (inactive)
same,GI50,HOP-92,> 100 µM (inactive)
same,GI50,HT-29,> 100 µM (inactive)
same,GI50,IGROV-1,> 100 µM (inactive)
same,GI50,K562,> 100 µM (inactive)
same,GI50,KM-20L2,> 100 µM (inactive)
same,GI50,KM12,> 100 µM (inactive)
same,GI50,LOX IMVI,> 100 µM (inactive)
same,GI50,M14,> 100 µM (inactive)
same,GI50,M19-MEL,> 100 µM (inactive)
same,GI50,Malme-3M,> 100 µM (inactive)
same,GI50,NCI-H226,> 100 µM (inactive)
same,GI50,NCI-H23,> 100 µM (inactive)
same,GI50,NCI-H460,> 100 µM (inactive)
same,GI50,OVCAR-3,> 100 µM (inactive)
same,GI50,OVCAR-4,> 100 µM (inactive)
same,GI50,OVCAR-5,> 100 µM (inactive)
same,GI50,OVCAR-8,> 100 µM (inactive)
same,GI50,RPMI-8226,> 100 µM (inactive)
same,GI50,RXF 631,> 100 µM (inactive)
same,GI50,SF-268,> 100 µM (inactive)
same,GI50,SF-295,> 100 µM (inactive)
same,GI50,SF-539,> 100 µM (inactive)
same,GI50,SK-MEL-28,> 100 µM (inactive)
same,GI50,SK-MEL-2,> 100 µM (inactive)
same,GI50,SK-MEL-5,> 100 µM (inactive)
same,GI50,SK-OV-3,> 100 µM (inactive)
same,GI50,SN12C,> 100 µM (inactive)
same,GI50,SNB-19,> 100 µM (inactive)
same,GI50,SNB-75,> 100 µM (inactive)
same,GI50,SNB-78,> 100 µM (inactive)
same,GI50,SW-620,> 100 µM (inactive)
same,GI50,TK-10,> 100 µM (inactive)
same,GI50,U-251,> 100 µM (inactive)
same,GI50,UACC-257,> 100 µM (inactive)
same,GI50,UACC-62,> 100 µM (inactive)
same,GI50,UO-31,> 100 µM (inactive)
Cc1ccc(/N=C2\N=C(N3CC(C)OC(C)C3)c3ccccc32)cc1 (configuration not stated),GI50,786-0,34.4 µM (inactive)
same,GI50,A498,26.6 µM (inactive)
same,GI50,A549,39.9 µM (inactive)
same,GI50,ACHN,28.6 µM (inactive)
same,GI50,CAKI-1,20.4 µM (inactive)
same,GI50,CCRF-CEM,23.3 µM (inactive)
same,GI50,COLO 205,40.3 µM (inactive)
same,GI50,DLD-1,41.3 µM (inactive)
same,GI50,DMS-273,28.1 µM (inactive)
same,GI50,EKVX,32.6 µM (inactive)
same,GI50,HCC 2998,29.5 µM (inactive)
same,GI50,HCT-116,20.2 µM (inactive)
same,GI50,HCT-15,25.4 µM
same,GI50,HOP-62,37.9 µM (inactive)
same,GI50,HOP-92,1.41 µM (inactive)
same,GI50,HT-29,23.7 µM (inactive)
same,GI50,IGROV-1,27.5 µM (inactive)
same,GI50,K562,34 µM (inactive)
same,GI50,KM-20L2,27.5 µM (inactive)
same,GI50,KM12,22 µM (inactive)
same,GI50,LOX IMVI,28.2 µM (inactive)
same,GI50,LXFL 529,18.9 µM (inactive)
same,GI50,M14,19.3 µM (inactive)
same,GI50,M19-MEL,36.1 µM (inactive)
same,GI50,MOLT-4,20.1 µM (inactive)
same,GI50,Malme-3M,31.2 µM (inactive)
same,GI50,NCI-H226,29 µM (inactive)
same,GI50,NCI-H23,28.5 µM (inactive)
same,GI50,NCI-H460,27.2 µM (inactive)
same,GI50,NCI-H522,> 10 µM (inactive)
same,GI50,OVCAR-3,24.3 µM (inactive)
same,GI50,OVCAR-4,18.1 µM (inactive)
same,GI50,OVCAR-5,40.6 µM (inactive)
same,GI50,OVCAR-8,33.4 µM (inactive)
same,GI50,RPMI-8226,27.2 µM (inactive)
same,GI50,RXF 393,12.6 µM (inactive)
same,GI50,RXF 631,34.9 µM (inactive)
same,GI50,SF-268,25.9 µM (inactive)
same,GI50,SF-295,29.9 µM (inactive)
same,GI50,SF-539,17.9 µM (inactive)
same,GI50,SK-MEL-28,28.4 µM (inactive)
same,GI50,SK-MEL-2,24.4 µM (inactive)
same,GI50,SK-MEL-5,23.6 µM (inactive)
same,GI50,SN12C,34.5 µM (inactive)
same,GI50,SNB-19,35 µM (inactive)
same,GI50,SNB-75,27.9 µM (inactive)
same,GI50,SNB-78,31.1 µM (inactive)
same,GI50,SW-620,33.9 µM (inactive)
same,GI50,TK-10,34.2 µM (inactive)
same,GI50,U-251,39.4 µM (inactive)
same,GI50,UACC-257,22.7 µM (inactive)
same,GI50,UACC-62,29.6 µM (inactive)
same,GI50,UO-31,21.3 µM (inactive)
same,GI50,XF498,24.3 µM (inactive)
CCc1c(C)[nH]c2c1/C(=N/N=C1\CCCc3[nH]c(C)c(CC)c31)CCC2,GI50,786-0,> 100 µM (inactive)
same,GI50,A498,25.6 µM (inactive)
same,GI50,A549,27.9 µM (inactive)
same,GI50,ACHN,18.6 µM (inactive)
same,GI50,CAKI-1,29.4 µM (inactive)
same,GI50,CCRF-CEM,19.2 µM (inactive)
same,GI50,COLO 205,17.9 µM (inactive)
same,GI50,DLD-1,> 100 µM (inactive)
same,GI50,DMS-114,14.1 µM (inactive)
same,GI50,DMS-273,17.4 µM (inactive)
same,GI50,EKVX,33 µM (inactive)
same,GI50,HCC 2998,> 100 µM (inactive)
same,GI50,HCT-116,16.9 µM (inactive)
same,GI50,HCT-15,19.4 µM
same,GI50,HL-60,11.9 µM (inactive)
same,GI50,HOP-62,> 100 µM (inactive)
same,GI50,HOP-92,14.5 µM (inactive)
same,GI50,HT-29,27.4 µM (inactive)
same,GI50,IGROV-1,20 µM (inactive)
same,GI50,K562,16.7 µM (inactive)
same,GI50,KM-20L2,27 µM (inactive)
same,GI50,KM12,15.7 µM (inactive)
same,GI50,LOX IMVI,20.9 µM (inactive)
same,GI50,LXFL 529,13.8 µM (inactive)
same,GI50,M14,20.7 µM (inactive)
same,GI50,M19-MEL,20.6 µM (inactive)
same,GI50,MOLT-4,12.8 µM (inactive)
same,GI50,Malme-3M,> 100 µM (inactive)
same,GI50,NCI-H226,17.6 µM (inactive)
same,GI50,NCI-H23,18.5 µM (inactive)
same,GI50,NCI-H460,18 µM (inactive)
same,GI50,NCI-H522,14.3 µM (inactive)
same,GI50,OVCAR-3,14.5 µM (inactive)
same,GI50,OVCAR-4,18.1 µM (inactive)
same,GI50,OVCAR-5,25.6 µM (inactive)
same,GI50,OVCAR-8,25.8 µM (inactive)
same,GI50,RPMI-8226,7.67 µM (inactive)
same,GI50,RXF 393,22.6 µM (inactive)
same,GI50,RXF 631,22.5 µM (inactive)
same,GI50,SF-268,19.3 µM (inactive)
same,GI50,SF-295,20.1 µM (inactive)
same,GI50,SF-539,28.2 µM (inactive)
same,GI50,SK-MEL-28,16.7 µM (inactive)
same,GI50,SK-MEL-2,> 100 µM (inactive)
same,GI50,SK-MEL-5,14.2 µM (inactive)
same,GI50,SK-OV-3,30.8 µM (inactive)
same,GI50,SN12C,29.2 µM (inactive)
same,GI50,SNB-19,41.4 µM (inactive)
same,GI50,SNB-75,20.8 µM (inactive)
same,GI50,SNB-78,27.4 µM (inactive)
same,GI50,SW-620,28.5 µM (inactive)
same,GI50,TK-10,49.1 µM (inactive)
same,GI50,U-251,17 µM (inactive)
same,GI50,UACC-257,17.5 µM (inactive)
same,GI50,UACC-62,18.5 µM (inactive)
same,GI50,UO-31,14.5 µM (inactive)
same,GI50,XF498,18.2 µM (inactive)
